Measurements published in the NIST ThermoML archive (doi:10.1021/je049610v).
Where “and” joins values, the source holds several entries; their conditions need not be identical. Identical values can stand only once. Numbers after ± are expanded uncertainties.

Key:
[1] = refractive index (Na D-line) (dimensionless); conditions: 101.33 kPa, Liquid
[2] = 101 kPa, Liquid

SMILES	refractive index ([1]; 298.15 K)	refractive index ([1]; 303.15 K)	refractive index ([1]; 308.15 K)	mass density ([2]; 298.15 K) [kg/m3]	speed of sound ([2]; 298.15 K) [m/s]	viscosity ([2]; 298.15 K) [mPa·s]	mass density ([2]; 303.15 K) [kg/m3]	viscosity ([2]; 303.15 K)	mass density ([2]; 308.15 K) [kg/m3]	viscosity ([2]; 308.15 K) [mPa·s]
ClC(Cl)C(Cl)Cl [1,1,2,2-tetrachloroethane]	1.4922 ± 0.0024	1.4894 ± 0.0024	1.4865 ± 0.0024	1587.8 ± 3.5	1153 ± 7	1.591 ± 0.049	1580.6 ± 3.6	1.471 ± 0.045 mPa·s	1573.3 ± 3.6	1.361 ± 0.042
C1COCCO1 [1,4-dioxane]	1.4181 ± 0.0024	1.4176 ± 0.0024	1.4141 ± 0.0024	1028.3 ± 2.1	1345 ± 7	1.415 ± 0.044	1023.1 ± 2.2	1.171 ± 0.1 mPa·s	1017.8 ± 2.2	1.068 ± 0.034
OCCCl [1-chloro-2-hydroxyethane]	1.4411 ± 0.0024	1.438 ± 0.0024	1.4326 ± 0.0024	1200.9 ± 2.5	1358 ± 8	3.104 ± 0.091	1192.5 ± 2.6	2.669 ± 0.079 mPa·s	1187.1 ± 2.7	2.347 ± 0.07
COc1ccccc1 [anisole]	1.5148 ± 0.0024	1.5124 ± 0.0024	1.5092 ± 0.0024	988.9 ± 2	1410 ± 8	0.992 ± 0.032	984.1 ± 2.1	0.919 ± 0.03 mPa·s and 0.918 ± 0.03 mPa·s	979.4 ± 2.1	0.853 ± 0.028
CCOC(=O)C(=O)OCC [diethyl ethanedioate]	1.4084 ± 0.0024	1.4061 ± 0.0024	1.4039 ± 0.0024	1072.3 ± 2.2	1267 ± 7	1.844 ± 0.056	1066.6 ± 2.3	1.659 ± 0.051 mPa·s	1060.7 ± 2.4	1.508 ± 0.046
C[S+](C)[O-] [dimethyl sulfoxide]	1.4768 ± 0.0064			1095.4 ± 2.3	1493 ± 8	1.984 ± 0.06	1090.8 ± 2.3	1.801 ± 0.055 mPa·s	1086.2 ± 2.4	1.651 ± 0.05
CN(C)C=O [dimethylformamide]	1.4288 ± 0.0024	1.4264 ± 0.0024	1.4238 ± 0.0024	943.9 ± 4	1462 ± 8	0.801 ± 0.026	939.5 ± 4.1	0.754 ± 0.025 mPa·s	935 ± 4.1	0.711 ± 0.024
ClC(Cl)=C(Cl)Cl [tetrachloroethene]	1.5036 ± 0.0024	1.501 ± 0.0024	1.498 ± 0.0024	1614.7 ± 3.5	1038 ± 6	0.861 ± 0.028	1606.9 ± 3.6	0.817 ± 0.027 mPa·s	1599 ± 3.6	0.782 ± 0.026
